Laboratory results reported in PMC11881559 (Antimicrobial Agents and Chemotherapy, 2025).
Values joined by “and” are separate entries in the source; they are usually repeats but may differ in a detail not shown here. Equal values may be shown once.

Key:
[1] = dogs; preclinical animal studies; cited from earlier work
[2] = Single ascending dose (SAD) study, plasma PK; format: in vivo, human; details: for AUC0-t / AUC0-∞ / Cmax / MRT0-∞ / λz: mean (%CV); for t1/2: mean ± SD; for Tmax: median (range)
Protocol: For the MAD and food-effect studies, the doses were chosen according to the PK and safety results of the SAD study. […] The tablets were administered from the lowest dosage. The next highest dose level was initiated based on PK characteristics and a 5-day safety observation of the previous dose by the investigators and sponsors. […] This study included two groups: one group under feeding conditions (a high-fat diet comprising 110 g of boiled eggs, 240 mL of milk, 20 g of bacon, 20 g of butter, 50 g of toast, 10 g of salad oil, and 115 g of chips consumed within 30 min before dosing) and one group under fasting conditions. […] Interventions for all cohorts, except the 200 mg cohort, were conducted at the First Hospital of Jilin University (Changchun, China). The randomization lists were created using the PLAN statistical procedure in SAS 9.4 software (SAS Institute, Cary, NC, USA). Throughout the study, unblinding was only used in the event of SAEs or other emergency situations; otherwise, blinding was maintained for investigators, participants, and sponsors until the study’s completion.
For the SAD, food-effect, and DDI studies, blood samples were collected before dose administration and at 15 min, 30 min, and 1, 1.5, 2, 3, 4, 6, 8, 12, 24, 36, 48, 72, and 96 h after dose administration. We used collection tubes containing the anticoagulant EDTA for PK assessments. In the MAD study, blood samples were obtained on day 1 at 0 h, 15 min, 30 min, and 1, 1.5, 2, 3, 4, 6, 8, and 12 h after dosing; on days 2–4; and on day 5 at 0 h, 15 min, 30 min, and 1, 1.5, 2, 3, 4, 6, 8, 12, 24, 36, 48, 72, and 96 h after dosing. The […] samples were subsequently centrifuged at 1,300 × g for 10 min at 2–8°C. For the food-effect component, urine samples were collected in tubes containing 0.01% Triton X-100 at the following intervals: 0, 0–6, 6–12, 12–24, 24–48, 48–72, 72–96, 96–120, 120–144, 144–168, and 168–192 h after administration. Fecal samples were collected from 0 h to 192 h after the first dose. All the samples were stored at −80°C.
The standard curve concentrations ranged from 5 to 5,000 ng/mL, 10 to 10,000 ng/mL, and 5 to 5,000 µg/g in the plasma, urine, and fecal samples, respectively. The lower limits of quantification were 5.00 ng/mL, 10.00 ng/mL, and 5.00 µg/g for the plasma, urine, and fecal samples, respectively.
The noncompartmental model (Phoenix WinNonlin ver. 8.2.2.227, Certara, Princeton, USA) was used to calculate the PK parameters: time to maximum observed plasma concentration (Tmax); maximum observed plasma concentration (Cmax); area under the concentration-time curve from the time of dosing to the last time point with measurable plasma concentrations of drug (AUC0-t); AUC from the time of dosing extrapolated to infinity (AUC0-∞); terminal elimination half-life of the drug in plasma (t1/2); clearance (CL/F); volume (Vz/F); terminal phase elimination rate constant (λz); and mean retention time (MRT). The power model was used to evaluate the relationship between PK parameters and the dose level, expressed as ln (PK parameter) = ln (α) + β * ln (dose), where ln (α) is the intercept of the transformed linear regression equation and β is the slope. Upon calculating the 90% CI of β, if the entire 90% CI of β falls within the judgment interval, the PK parameters can be deemed linearly related to the dosage.

[3] = Exposure-response analysis of adverse events (logistic regression); parameters: species or system human
Excerpt: For safety analysis, we also employed an exposure-response analysis method that included four binary outcomes: any adverse drug reaction (ADR), hypertriglyceridemia, hyperuricemia, and elevated creatinine levels. The exposure levels were derived by simulating individual parameter estimates from a population PK model ([23]), which generated dense sampling drug concentration-time curves. The noncompartmental analysis was subsequently performed using the PKNCA package in R software ver. 4.3 to calculate the area under the concentration-time curve over 24 h (AUC0-24) using the trapezoidal method and the maximum blood drug concentration within 24 h (Cmax).
logit(P(Yi=1))=β0+β1⋅log(Xi)
In this context, Xi represents the exposure (AUC0-24 and Cmax) of the ith subject, β0 denotes the intercept, and β1 indicates the coefficient for exposure. P(Yi = 1) represents the probability of AE occurrence, with logit referring to the logistic transformation.

[4] = Multiple ascending dose (MAD) study, plasma PK; details: for t1/2: mean ± SD
[5] = Preclinical toxicology, NOAEL in rats; format: in vivo; details: from rat NOAEL, at 60 kg body weight

O=C(NC1CCCC1)C(=O)[C@H](C[C@@H]1CCNC1=O)NC(=O)[C@@H]1[C@H]2CCC[C@H]2CN1C(=O)[C@@H](NC(=O)C(F)(F)F)C1CCCCC1 [RAY1216, leritrelvir]
no-observed-adverse-effect level (NOAEL) [1]: 600 mg/kg/day | AUC0-t ([2]; 200 mg single dose): 5,510 (22.7) ng·h/mL | AUC0-∞ ([2]; 200 mg single dose): 5,550 (22.7) ng·h/mL | Cmax ([2]; 200 mg single dose): 1,270 (42) ng/mL | MRT0-∞ ([2]; 200 mg single dose): 5.01 (13.5) h | λz ([2]; 200 mg single dose): 0.214 (6.2) h^−1 | t1/2 ([2]; 200 mg single dose): 3.25 ± 0.202 h | Tmax ([2]; 200 mg single dose): 1.5 (0.5, 2.0) h | AUC0-t ([2]; 400 mg single dose): 11,700 (45.8) ng·h/mL | AUC0-∞ ([2]; 400 mg single dose): 11,700 (45.6) ng·h/mL | Cmax ([2]; 400 mg single dose): 2,250 (53.8) ng/mL | MRT0-∞ ([2]; 400 mg single dose): 6.05 (9.9) h | λz ([2]; 400 mg single dose): 0.172 (36) h^−1 | t1/2 ([2]; 400 mg single dose): 4.83 ± 2.86 h | Tmax ([2]; 400 mg single dose): 1.3 (1.0, 4.0) h | AUC0-t ([2]; 800 mg single dose): 16,200 (18.7) ng·h/mL | AUC0-∞ ([2]; 800 mg single dose): 16,300 (18.8) ng·h/mL | Cmax ([2]; 800 mg single dose): 3,590 (20.2) ng/mL | MRT0-∞ ([2]; 800 mg single dose): 6.75 (38.2) h | λz ([2]; 800 mg single dose): 0.128 (73.6) h^−1 | t1/2 ([2]; 800 mg single dose): 10.3 ± 9.72 h | Tmax ([2]; 800 mg single dose): 1.5 (1.0, 3.0) h | AUC0-t ([2]; 1,600 mg single dose): 29,100 (24.1) ng·h/mL | AUC0-∞ ([2]; 1,600 mg single dose): 29,100 (24.1) ng·h/mL | Cmax ([2]; 1,600 mg single dose): 6,180 (20.1) ng/mL | MRT0-∞ ([2]; 1,600 mg single dose): 5.94 (13.4) h | λz ([2]; 1,600 mg single dose): 0.139 (22.4) h^−1 | t1/2 ([2]; 1,600 mg single dose): 5.22 ± 1.16 h | Tmax ([2]; 1,600 mg single dose): 1.5 (1.0, 4.0) h | exposure-response relationship of ADRs, hypertriglyceridemia, hyperuricemia, elevated creatinine with exposure (AUC0-24, Cmax) [3]: no significant dose-response relationship | plasma concentration reached a steady state by ([4]; 400 mg TID): ≤ 2 days | AUC0-t ([4]; 400 mg TID, Day 1, mean (%CV)): 9,720 (36) ng·h/mL | AUC0-tau ([4]; 400 mg TID, Day 1, mean (%CV)): 10,600 (30.4) ng·h/mL | AUC0-∞ ([4]; 400 mg TID, Day 1, mean (%CV)): 13,300 (32) ng·h/mL | Cmax ([4]; 400 mg TID, Day 1, mean (%CV)): 3,450 (37.2) ng/mL | MRT0-∞ ([4]; 400 mg TID, Day 1, mean (%CV)): 3.93 (16.5) h | t1/2 ([4]; 400 mg TID, Day 1): 2.31 ± 0.465 h | Tmax ([4]; 400 mg TID, Day 1, median (range)): 1.5 (1.0, 2.0) h | AUC0-t ([4]; 400 mg TID, Day 5, mean (%CV)): 15,400 (32.5) ng·h/mL | AUC0-tau ([4]; 400 mg TID, Day 5, mean (%CV)): 10,000 (36) ng·h/mL | AUC0-∞ ([4]; 400 mg TID, Day 5, mean (%CV)): 15,500 (32.2) ng·h/mL | Cmax ([4]; 400 mg TID, Day 5, mean (%CV)): 2,700 (32.3) ng/mL | Cmin,ss ([4]; 400 mg TID, Day 5, mean (%CV)): 382 ng/mL and 382 (44.9) ng/mL | MRT0-∞ ([4]; 400 mg TID, Day 5, mean (%CV)): 6.23 (18.9) h | t1/2 ([4]; 400 mg TID, Day 5): 9.61 ± 2.26 h | Tmax ([4]; 400 mg TID, Day 5, median (range)): 1.5 (1.0, 3.0) h | Tmax ([4]; 400 mg TID, continuous administration): 1.5 h | plasma concentrations reached a steady state by ([4]; 300, 500 or 700 mg with 100 mg ritonavir BID): ≤ 2 days | human equivalent dose [5]: approximately 10,800 mg/day
